How the values were obtained:
MAGL-Nluc fusion protein = experiment: Competition nanoBRET assay in live HEK293 cells with probe 4a as tracer; type: cell-based; settings: tracer 4a (100 nM), read-out: cellular IC50
Protocol: In vitro MAGL Inhibition Assay
Compounds were profiled for MAGL inhibitory activity by determining the enzymatic activity by following the hydrolysis of the natural substrate 2-arachidonoylglycerol (2-AG), resulting in arachidonic acid, which can be followed by mass spectrometry. The 2-AG assay was carried out in 384 well assay plates (PP, Greiner Cat# 784201) in a total volume of 20 µL. Compound dilutions were made in 100% DMSO (VWR Chemicals 23500.297) in a polypropylene plate in 3-fold dilution steps to give a final concentration range in the assay from 12.5 µM to 0.8 pM. […] The activity of the compounds was calculated based on the ratio of intensities [arachidonic acid / d8-arachidonic acid]. […]
A HEK293A stable cell line expressing NanoLuc_MAGL was established at Roche and assigned as HEK293A_NanoLuc_MAGL clone #43. […] The introduction of competing compounds results in a dose -dependent decrease in NanoBRET™ energy transfer, which allows quantification of the intracellular affinity of the target protein for the test compound.
HEK293A_NanoLuc_MAGL clone #43 cells were cultured in DMEM (Gibco 31966) with 10% FBS and 800 ug/ml G418. […] After 2 hours of incubation, Nanoluciferase substrates and extracellular inhibitors were added following the manufacturer's protocol (Promega, #N2520), and the NanoBRET signaling were quantified with the Paradigm (Molecular Devices).

MAGL [1] = biological target: T1, MAGL (Homo sapiens, UniProt Q99685); experiment: Competitive FP binding assay with probe 5 as tracer; settings: 5 (20 nM), hMAGL (50 nM), irreversible inhibitors time-dependent
T1 sequence (Q99685 1-303): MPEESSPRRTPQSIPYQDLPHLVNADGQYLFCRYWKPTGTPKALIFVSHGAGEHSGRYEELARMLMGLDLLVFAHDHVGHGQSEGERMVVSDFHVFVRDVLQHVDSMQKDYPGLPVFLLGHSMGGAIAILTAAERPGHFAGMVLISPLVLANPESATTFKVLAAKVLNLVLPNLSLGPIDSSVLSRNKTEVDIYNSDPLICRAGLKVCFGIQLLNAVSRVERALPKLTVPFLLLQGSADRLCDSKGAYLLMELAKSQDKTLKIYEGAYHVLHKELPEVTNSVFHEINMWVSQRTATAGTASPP

MAGL [2] = biological target: T1, MAGL; set-up: method as in earlier work; settings: Table S2, literature compounds; ref (1), (6)-(12) as indicated per compound; cited from earlier work
MAGL [3] = biological target: T1, MAGL; experiment: ABPP target occupancy in patient-derived PBMCs; type: cell-based; set-up: native, human patient-derived peripheral blood monocytes (PBMCs); endogenous in cells; host or cells: human PBMCs from buffy coats
Protocol: minutes at RT. Subsequently, 0.5 µL MB064 (40x stock in DMSO) was added to the proteome sample, vortexed briefly, and incubated for 10 minutes at RT, after which 0.5 µL FP-Bodipy-FL (40x stock in DMSO) was added, vortexed briefly and incubated for 10 minutes at RT. The final volume was 20 - 20.5 µL (5 - 7.5% DMSO). The reaction was quenched by the addition of 7.5 µL of 4*Laemmli-buffer (final concentrations: 60 mM Tris (pH 6.8), 2% (w/v) SDS, 10% (v/v) glycerol, 1.25% (v/v) β-mercaptoethanol, 0.01% (v/v) bromophenol blue). 10 µL (14 µg protein) of the quenched reaction mixture was resolved on 10% acrylamide SDS-PAGE (180 V, 75 min). Fluorescence was measured using a Biorad ChemiDoc MP system (fluorescence channels Cy2, Cy3, Cy5). Gels were then stained using coomassie staining and imaged for protein loading control. Labeling of the respective proteins via MB064 and FP-BODIPY was visualized in two separate channels. […]
PBMCs were thawed, washed with 1 x PBS and equal amounts of cells were exposed to DMSO (D2650; Sigma-Aldrich) or MAGL inhibitor PF (PF-06795071) in DMSO for 30 min at room temperature with concentrations ranging from 1 nM to 1000 nM. […] Samples were then separated by SDS-PAGE and bands were detected ChemiDoc Imager (Bio-Rad Laboratories). […] Gels were imaged and protein bands were quantified using Image Lab software (Bio-Rad Laboratories).

IC50 (MAGL-Nluc fusion protein): 1600 nM
Ki (MAGL [1]): 12.8 ± 3.9 nM
loss of MAGL activity (MAGL [3]; 1 nM): 40%
loss of MAGL activity (MAGL [3]; 10 nM): 93%
SMILES: O=C(O[C@H](CO)C(F)(F)F)N1C[C@@H]2C(c3ccn(-c4ccc(F)cc4)n3)[C@@H]2C1 (some centres unmarked) [PF-06795071]
IC50 (MAGL [2]): 3 nM

— PMC11951083, “Highly Specific Miniaturized Fluorescent Monoacylglycerol Lipase Probes Enable Translational Research” (Journal of the American Chemical Society, 2025)
